In patent publication US20260159536A1, “AKR1C3-ACTIVATED DNA ALKYLATING AGENT, AND MEDICAL APPLICATION THEREOF” (ASCENTAWITS PHARMACEUTICALS, LTD., priority 2021, published 2026):

Test: in vitro
Conditions: for half-life at 5 µM: hepatocyte cytosol
Experimental: (1) Compound A for test, progesterone positive control, and 100 mM stock solutions of AST-3021 inhibitor were prepared and stored in the freezer (−10° C. to −30° C.).
1) Negative control group: at different time points (0 and 60 min), 30 μL/well of hepatocyte cytosol suspension containing 7.5 μM of sample for test was distributed in a 96-well plate. Three replicate wells were prepared in parallel.
2) Positive control group: at different time points (0, 5, 15, 30, 45 and 60 min), 30 μL/well of hepatocyte cytosol suspension containing 7.5 μM of the positive control was distributed in a 96-well plate. Three replicate wells were prepared in parallel.
3) Normal reaction group: at different time points (0, 5, 15, 30, 45 and 60 min), 30 μL/well of hepatocyte cytosol suspension containing 7.5 μM of sample for test was distributed in a 96-well plate. Three replicate wells were prepared in parallel.
4) Inhibition reaction group: at different time points (0, 5, 15, 30, 45 and 60 min), 30 μL/well of hepatocyte cytosol suspension containing […] of sample for test and 4.5 μM of the inhibitor was distributed in a 96-well plate. Three replicate wells were prepared in parallel.
6) 0 min samples: after 150 μL/well of acetonitrile containing the internal standard was added, then 15 μL/well of pre-heated NADPH working solution was added to the samples of normal reaction group, inhibition reaction group and positive control group, and 15 μL/well of pre-heated potassium phosphate buffer was added to the samples of negative control group.
7) Other samples (5, 15, 30, 45 and 60 min): for normal reaction group, inhibition reaction group and positive control group, 15 μL/well of pre-heated NADPH working solution was added to start the reaction; for negative control group, 15 μL/well of pre-heated potassium phosphate buffer was added. The reaction plates were then continued to incubate in a 37° C. water bath and the reactions were stopped by the addition of 150 μL/well of stop solution at the corresponding time points (5, 15, 30, 45 and 60 min).
The concentration of analyte in each sample was expressed as a peak area ratio (peak area analyte/peak areainternal standard), then the peak area ratio at 0 min was used as a reference to calculate the % Remaining at each time point of the incubation, and the ln logarithmic value of the % Remaining was linearly fitted to the incubation time and the half-life was calculated according to the following formula.
In the absence of AST-3021, 5 μM of progesterone was co-incubated with 2 mM of NADPH and 1 mg/mL of hepatocyte cytosol for 0-60 min as a positive control.

O=[N+]([O-])c1ccc(C(OP(=O)(N2CC2)N2CC2)C(F)(F)F)cc1Oc1ccc(-c2ccc(F)cc2)c(F)c1 (racemic) [Compound A]
half-life at 5 µM (CD-1, mouse, Metabolic parameter t1/2, mouse, 2 mM NADPH, no AST-3021 (normal reaction / positive control group), 5 μM): 8.52 h
half-life at 5 µM (CD-1, mouse, Metabolic parameter t1/2, mouse, negative control group (no NADPH, no AST-3021), 5 μM): 3.72 h
half-life at 5 µM (CD-1, mouse, half-life, mouse, with NADPH and AST-3021): 2.34 h
half-life at 5 µM (CD-1, mouse, half-life, mouse, with NADPH, no AST-3021): 8.52 h
half-life at 5 µM (CD-1, mouse, with AST-3021 (AKR1C3 inhibitor), 3 μM, Metabolic parameter t1/2, mouse, 2 mM NADPH + 3 μM AST-3021 (inhibition reaction group), 5 μM): 2.81 h
half-life at 5 µM (SD, rat, Metabolic parameter t1/2, rat, 2 mM NADPH, no AST-3021 (normal reaction / positive control group), 5 μM): 2.18 h
half-life at 5 µM (SD, rat, Metabolic parameter t1/2, rat, negative control group (no NADPH, no AST-3021), 5 μM): 1.83 h
half-life at 5 µM (SD, rat, with AST-3021 (AKR1C3 inhibitor), 3 μM, Metabolic parameter t1/2, rat, 2 mM NADPH + 3 μM AST-3021 (inhibition reaction group), 5 μM): 1.69 h
half-life at 5 µM (Sprague-Dawley (SD), rat, half-life, with NADPH and AST-3021): 1.69 h
half-life at 5 µM (Sprague-Dawley (SD), rat, half-life, with NADPH, no AST-3021): 2.18 h
half-life at 5 µM (cynomolgus (printed as 'machins'), monkey, Metabolic parameter t1/2, monkey, 2 mM NADPH, no AST-3021 (normal reaction / positive control group), 5 μM): 2.53 h
half-life at 5 µM (cynomolgus (printed as 'machins'), monkey, Metabolic parameter t1/2, monkey, negative control group (no NADPH, no AST-3021), 5 μM): 2.87 h
average % Remaining (human, 60 min, no NADPH, no AST-3021): 38.96%
average % Remaining (human, 60 min, with NADPH, no AST-3021): 43.34%
half-life at 5 µM (human, Metabolic parameter t1/2, human, 2 mM NADPH, no AST-3021 (normal reaction / positive control group), 5 μM): 0.831 h
half-life at 5 µM (human, Metabolic parameter t1/2, human, negative control group (no NADPH, no AST-3021), 5 μM): 0.735 h
half-life at 5 µM (human, half-life, with NADPH and AST-3021): 1.08 h
half-life at 5 µM (human, half-life, with NADPH, no AST-3021): 0.831 h
half-life at 5 µM (human, with AST-3021 (AKR1C3 inhibitor), 3 µM, Metabolic parameter t1/2, human, 2 mM NADPH + 3 μM AST-3021 (inhibition reaction group), 5 μM): 1.08 h
% Remaining (human, with NADPH and AST-3021): 53.65%
Metabolic parameter k (human, 2 mM NADPH + 3 μM AST-3021 (inhibition reaction group), 5 μM): 0.0107
average % Remaining (human, 2 mM NADPH + 3 μM AST-3021 (inhibition reaction group), 5 μM, 0 min): 100.00%
average % Remaining (human, 2 mM NADPH + 3 μM AST-3021 (inhibition reaction group), 5 μM, 5 min): 83.74%
average % Remaining (human, 2 mM NADPH + 3 μM AST-3021 (inhibition reaction group), 5 μM, 15 min): 78.58%
average % Remaining (human, 2 mM NADPH + 3 μM AST-3021 (inhibition reaction group), 5 μM, 30 min): 67.01%
average % Remaining (human, 2 mM NADPH + 3 μM AST-3021 (inhibition reaction group), 5 μM, 45 min): 66.39%
average % Remaining (human, 2 mM NADPH + 3 μM AST-3021 (inhibition reaction group), 5 μM, 60 min): 53.65%
Metabolic parameter k (human, 2 mM NADPH, no AST-3021 (normal reaction / positive control group), 5 μM): 0.0139
average % Remaining (human, 2 mM NADPH, no AST-3021 (normal reaction / positive control group), 5 μM, 0 min): 100.00%
average % Remaining (human, 2 mM NADPH, no AST-3021 (normal reaction / positive control group), 5 μM, 5 min): 88.27%
average % Remaining (human, 2 mM NADPH, no AST-3021 (normal reaction / positive control group), 5 μM, 15 min): 79.04%
average % Remaining (human, 2 mM NADPH, no AST-3021 (normal reaction / positive control group), 5 μM, 30 min): 70.02%
average % Remaining (human, 2 mM NADPH, no AST-3021 (normal reaction / positive control group), 5 μM, 45 min): 52.35%
average % Remaining (human, 2 mM NADPH, no AST-3021 (normal reaction / positive control group), 5 μM, 60 min): 43.34%
Metabolic parameter k (human, negative control group (no NADPH, no AST-3021), 5 μM): 0.0157
average % Remaining (human, negative control group (no NADPH, no AST-3021), 5 μM, 0 min): 100.00%
average % Remaining (human, negative control group (no NADPH, no AST-3021), 5 μM, 60 min): 38.96%
half-life at 5 µM (machin (cynomolgus), monkey, with AST-3021 (AKR1C3 inhibitor), 3 µM, Metabolic parameter t1/2, monkey, 2 mM NADPH + 3 μM AST-3021 (inhibition reaction group), 5 μM): 2.59 h
half-life at 5 µM (machins, monkey, half-life, with NADPH and AST-3021): 2.59 h
half-life at 5 µM (machins, monkey, half-life, with NADPH, no AST-3021): 2.53 h
average % Remaining (monkey, 60 min, no NADPH, no AST-3021): 78.57%
average % Remaining (monkey, 60 min, with NADPH, no AST-3021): 73.28%
% Remaining (monkey, with NADPH and AST-3021): 69.52%
Metabolic parameter k (monkey, 2 mM NADPH + 3 μM AST-3021 (inhibition reaction group), 5 μM): 0.0045
average % Remaining (monkey, 2 mM NADPH + 3 μM AST-3021 (inhibition reaction group), 5 μM, 0 min): 100.00%
average % Remaining (monkey, 2 mM NADPH + 3 μM AST-3021 (inhibition reaction group), 5 μM, 5 min): 96.83%
average % Remaining (monkey, 2 mM NADPH + 3 μM AST-3021 (inhibition reaction group), 5 μM, 15 min): 101.19%
average % Remaining (monkey, 2 mM NADPH + 3 μM AST-3021 (inhibition reaction group), 5 μM, 30 min): 90.97%
average % Remaining (monkey, 2 mM NADPH + 3 μM AST-3021 (inhibition reaction group), 5 μM, 45 min): 88.36%
average % Remaining (monkey, 2 mM NADPH + 3 μM AST-3021 (inhibition reaction group), 5 μM, 60 min): 69.52%
